Laboratory results taken from ChEMBL document CHEMBL1157539, “Thousands of chemical starting points for antimalarial lead identification” (Nature, 2010).

tested on: Plasmodium falciparum; assay: GSK_TCMDC: Inhibition of Plasmodium falciparum 3D7 in whole erythrocytes, using parasite LDH activity as an index of growth.; format: functional, organism-based; settings: Plasmodium falciparum, 3D7

CCOc1ccc2c(N/N=C/c3cccc([N+](=O)[O-])c3)cc(C)nc2c1 and Cc1cc(=NN=Cc2cccc(F)c2)c2ccc(F)cc2[nH]1 are within 1.5-fold of each other in XC50: 224 nM for the first, 229 nM for the second.

CCC(CC)CN1C(=O)C(c2ccccc2)(c2ccccc2)N=C1N and CCCCN1C(=N)NC(c2ccccc2)(c2ccccc2)C1=O are within 1.5-fold of each other in XC50: 970 nM for the first, 1030 nM for the second.

Cc1nn(CC(C)C)c2sc(C(=O)N3CCN(S(=O)(=O)c4ccc(C#N)cc4)CC3)cc12 and CC(C)N1CCN(C(=O)c2ccc(CNCCCN3CCN(c4cccc(Cl)c4Cl)CC3)o2)CC1 are within 1.5-fold of each other in XC50: 739 nM for the first, 737 nM for the second.

Cn1nc(-c2ccc(CN[C@@H]3CCc4ccc(O)cc43)cc2)c2cnc(NC3CCCC3)nc21 and Fc1ccc2[nH]c(-c3ccc(-c4ccc(CNCCN5CCNCC5)cc4)cc3)nc2c1 are within 1.5-fold of each other in XC50: 1120 nM for the first, 850 nM for the second.

CN(C)CCCN(C)C(=O)c1cc2cc(-c3ccccc3)ccc2n1S(=O)(=O)c1ccccc1 and CN(C)CCNC(=O)c1ccc2c(c1)n(C1CCN(S(=O)(=O)c3ccc(-c4ccccc4)cc3)CC1)c(=O)n2CC1CCCCC1 are within 1.5-fold of each other in XC50: 462 nM for the first, 624 nM for the second.

Compared with COc1ccc2ncc(C)c(CCN3CCC(NCc4ccc5c(n4)NC(=O)CS5)CC3)c2c1, COc1ccc(F)cc1-c1cccc(CNC2CCN(CC3Cn4c(=O)ccc5ccc(F)c3c54)CC2)c1 (stereo unspecified) is 1.5-fold higher in XC50: 546 nM for the first, 830 nM for the second.

CC1(C)NC(N)=NC(=N)N1OCCCCOc1ccccc1 and CCCc1cccc(C)c1OCCCON1C(=N)N=C(N)NC1(C)C are the same in XC50: 3.2 nM for the first, 3.2 nM for the second.

Compared with NC(=O)c1cnc2cc(-c3ccncc3)cc(Nc3ccc(NC(=O)C4CCCCC4)cc3)c2c1, Cc1ccc(C)c(NC(=O)Nc2ccc(C)c(-c3ccc(C(=O)Nc4ccncc4)cc3)c2)c1 is 2.7-fold higher in XC50: 232 nM for the first, 618 nM for the second.

First: CCNc1cc(CCCC(=O)OCC)nc(Nc2ccc(C)cc2)n1
Second: CCN(CCCN1CCCCC1)c1cc(C)nc(Nc2ccc(Cl)cc2)n1
The XC50 of the first is 2-fold higher: 771 nM for the first, 385 nM for the second.

Compared with OC(CNC1CCCCCC1)c1ccc(Cl)c(Cl)c1 (stereo unspecified), CC(C)(C)c1nn(-c2ccc(Cl)cc2)c2[nH]c(=O)c(CNC3CCCC3)cc12 is 2.9-fold lower in XC50: 688 nM for the first, 234 nM for the second.

Going from O=C(Nc1cccc(N2CCC(NCCCc3ccncc3)CC2)c1)c1cccc(C(F)(F)F)c1 to COc1ccccc1CN1CCC(NC(=O)c2ccc(-c3cccc(C(F)(F)F)c3)s2)CC1, the XC50 rises from 853 nM to 1310 nM (1.5-fold).

First: NC1=NC(c2ccccc2)N(OCc2ccccc2)C(N)=N1 (stereo unspecified)
Second: O=C(Cc1ccccc1)NC(c1ccccc1)c1ccc2cccnc2c1O (stereo unspecified)
The XC50 of the first is 22-fold lower: 43.1 nM for the first, 952 nM for the second.

Going from Cc1ccc(O)cc1Nc1ccnc2ccc(-c3cccc(CNCCN(C)C)c3)cc12 to Fc1ccc2[nH]c(-c3cccc(-c4cccc(CNCCc5ccncc5)c4)c3)nc2c1, the XC50 falls from 612 nM to 170 nM (3.6-fold).

Cc1cccc2nc(-c3ccc(-c4cccc(NC(=O)Nc5ccc(Cl)cc5)c4)s3)[nH]c12 and Cc1cccc2nc(-c3ccc(-c4cccc(NC(=O)COc5ccccc5C(N)=O)c4)s3)[nH]c12 are within 1.5-fold of each other in XC50: 517 nM for the first, 734 nM for the second.

Going from COc1ccc(O)c(-c2sc(N=C(N)N)nc2-c2ccccc2)c1 to COc1cccc(-c2cc(C(F)(F)F)n3ncc(C(=O)Nc4cc(C)ccc4O)c3n2)c1, the XC50 falls from 372 nM to 159 nM (2.3-fold).

c1cncc(CCNCc2cccc(-c3csc(-c4nc5ccccc5[nH]4)c3)c2)c1 and O=C(NCc1cccc(F)c1)Nc1ccc(-c2cccc(-c3nc4ccccc4[nH]3)c2)cc1 are within 1.5-fold of each other in XC50: 704 nM for the first, 894 nM for the second.

First: Cc1ccc(CON2C(=N)N=C(N)NC2(C)C)cc1C
Second: COc1ccc(Cc2c(N)nc3nc(N)nc(N)c3c2C)cc1
The XC50 of the first is 59-fold lower: 3.2 nM for the first, 189 nM for the second.

Going from COc1cccc(NC(=O)[C@H](C(C)C)n2c(=O)[nH]c3ccccc3c2=O)c1 to COc1ccc(NC(=O)[C@H](CC(C)C)Nc2ccnc(Nc3ccccc3)n2)cc1, the XC50 rises from 266 nM to 1570 nM (5.9-fold).

COC(=O)C(Cc1ccccc1)C(CSCc1ccc(OC)cc1)C(=O)N[C@@H](C(=O)OC(C)(C)C)c1ccc(C(C)(C)C)cc1 (stereo partly specified) and COc1ccc(CCn2c(=N)c(C(=O)NCc3ccccc3)cc3c(=O)n4ccccc4nc32)cc1 are within 1.5-fold of each other in XC50: 1030 nM for the first, 751 nM for the second.

First: O=C(Nc1ccccc1)N(Cc1cccc(-c2ccc(CNCCc3ccccc3)cc2)c1)C1CCN(Cc2ccccc2)CC1
Second: O=C(NC1CCCCC1)N(Cc1cccc(-c2ccc(CNCc3ccc4c(c3)OCO4)cc2)c1)C1CCN(Cc2ccccc2)CC1
The XC50 of the first is 2.3-fold lower: 349 nM for the first, 788 nM for the second.

Cc1ccc2[nH]c(C)cc(=NN=CC=Cc3ccccc3)c2c1 and COc1ccc2[nH]c(C)cc(=NN=Cc3ccncc3)c2c1 are within 1.5-fold of each other in XC50: 840 nM for the first, 697 nM for the second.

First: CC1CN(c2ccc(NC(=O)c3ccc(F)cc3)cc2)CCN1Cc1cccc(F)c1 (stereo unspecified)
Second: CN1CCCN(Cc2ccc(-c3ccc(NC(=O)c4ccc(Cl)cc4)cc3)cc2)CC1
The XC50 of the first is 1.5-fold higher: 1350 nM for the first, 895 nM for the second.

First: Oc1ccc(CCNc2nc(NCCCOc3ccccc3-c3cccnc3)nc(N3CCNCC3)n2)cc1
Second: COc1cc2nc(NCCc3ccccc3)nc(NCc3ccc(C#N)cc3)c2cc1OC
The XC50 of the first is 7.2-fold higher: 1040 nM for the first, 145 nM for the second.

N=C(N)CCN(Cc1ccc(Cl)cc1)c1ccc(Cl)cc1 and Nc1nc(Cc2ccc(Cl)cc2)nc(Cc2ccc(Cl)cc2)n1 are within 1.5-fold of each other in XC50: 1060 nM for the first, 929 nM for the second.

Compared with COc1ccc(-c2ccc(NC(=O)c3ccc(C#N)cc3)cc2)cc1CN(C)CCN(C)C, COc1cc(-c2[nH]c(-c3ccc(OCCN(C)C)cc3)cc2-c2ccncc2)ccc1Cl is 2.7-fold higher in XC50: 663 nM for the first, 1790 nM for the second.

Compared with Cc1ccc(C(=O)NC2CCN(CCNC(=O)Nc3cc(C)nc4ccccc34)CC2)cc1, Cc1noc(-c2ccccc2)c1NC(=O)NC1CCN(CCCCCNC(=O)/C=C/c2ccc(Cl)c(Cl)c2)CC1 is 2-fold higher in XC50: 490 nM for the first, 985 nM for the second.

Compared with Cc1sc2ncnc(Sc3nc4ccccc4[nH]3)c2c1C, Cc1nc(N)nc(N)c1OCCCOc1ccccc1Br is 62-fold lower in XC50: 255 nM for the first, 4.1 nM for the second.

Compared with COc1ccc2c(c1C1CCN(CCCCNC(=O)c3ccc(NC(=O)c4ccc(Cl)cc4)cc3)CC1)CCCC2, CCOc1ccc(C2CCN(CCCCNC(=O)c3ccc(NC(=O)c4ccc(Cl)cc4)cc3)CC2)c(OCC)c1 is 2-fold higher in XC50: 341 nM for the first, 677 nM for the second.

Compared with Cc1cccc2nc(-c3ccc(-c4ccc(CNCc5ccc(CN)cc5)cc4)cc3)[nH]c12, COc1ccc(CNCc2ccc(-c3ccc(-c4nc5cccc(C)c5[nH]4)cc3)cc2)cc1 is 2.1-fold lower in XC50: 721 nM for the first, 341 nM for the second.

Going from O=C1NC(=O)C(c2cccc(NC(=O)c3ccncc3)c2)=C1c1ccccc1 to Cc1cc(Nc2cccc(C(F)(F)F)c2)nc2ccc(NC(=O)c3ccc(=O)[nH]c3)cc12, the XC50 falls from 735 nM to 487 nM (1.5-fold).

C#CCNC(=O)c1ccc(-c2ccnc(Nc3cccc(CCCN4CCOCC4)c3)n2)s1 and Cc1ccc2[nH]c3c(NCCCN4CCOCC4)ncnc3c2c1 are within 1.5-fold of each other in XC50: 1000 nM for the first, 942 nM for the second.

CCCCCCNC(=N)c1ccc(OCCCCCOc2ccc(C(=N)NCCCCCC)cc2)cc1 and CCOc1ccc(OCC(=O)Nc2nc(-c3ccc(OC)cc3)c(C)s2)cc1 are within 1.5-fold of each other in XC50: 309 nM for the first, 220 nM for the second.

N[C@@H](CCNCc1ccc(-c2cccnc2)cc1)Cc1ccc(F)c(F)c1 and CC[C@H](C)CNC(=O)c1cncc(-c2ccc(CNCCCc3ccccc3)cc2)c1 are within 1.5-fold of each other in XC50: 797 nM for the first, 735 nM for the second.

First: O=C(/C=C/c1ccc(Cl)c(Cl)c1)NCCCCCCN1CCCN(C(=O)Nc2ccc(Cl)c(C(F)(F)F)c2)CC1
Second: O=C(Nc1ccc(Cl)cc1Cl)N[C@H]1CCN(CCCCCNC(=O)C2CC2c2ccc(Cl)c(Cl)c2)C1 (stereo partly specified)
The XC50 of the first is 1.8-fold lower: 565 nM for the first, 989 nM for the second.

CCOc1cc(C(=O)NCC2CCN(CC3CCCCC3)CC2)ccc1-c1nc2cc(Cl)ccc2[nH]1 and O=C(NC1CCC(CN2CCC(c3c[nH]c4ccccc34)CC2)CC1)c1ccc(-c2ccccc2[N+](=O)[O-])o1 (stereo unspecified) are within 1.5-fold of each other in XC50: 563 nM for the first, 772 nM for the second.

First: Cc1cc(N[C@@H](CC(C)C)C(=O)NCCOc2ccccc2)nc(NCCOc2ccccc2)n1
Second: O=C(CN(c1cccc(C(F)(F)F)c1)S(=O)(=O)c1ccc(Cl)cc1)NCCC(c1ccccc1)c1ccccc1
The XC50 of the first is 2-fold higher: 1490 nM for the first, 743 nM for the second.

Going from CC(C)COc1ccc(Cl)cc1Cc1nc(-c2nc3ccc(CN4CCN(C)CC4)cc3[nH]2)co1 to OCCN1CCN(Cc2cccc(-c3ccc(-c4nc5cc(C(F)(F)F)ccc5[nH]4)cc3)c2)CC1, the XC50 falls from 912 nM to 559 nM (1.6-fold).

First: Cc1cc(C)c(C)c(S(=O)(=O)N2CCCCC(c3ccc(F)c(F)c3)=N2)c1C
Second: Cc1cc(C)c(S(=O)(=O)N2CCCCC(c3cccc(C(F)(F)F)c3)=N2)c(C)c1
The XC50 of the first is 1.5-fold higher: 706 nM for the first, 456 nM for the second.

O=C(NC1CCN(Cc2ccccc2)CC1)c1cc(C(=O)NC2CCN(Cc3ccccc3)CC2)cc(C(=O)NC2CCN(Cc3ccccc3)CC2)c1 and CS(=O)(=O)c1ccc(CCNCc2ccc(-c3ccc(CN(C(=O)C4CCCC4)C4CCN(Cc5ccccc5)CC4)cc3)nc2)cc1 are within 1.5-fold of each other in XC50: 1040 nM for the first, 832 nM for the second.

COc1cc(Nc2nccc(N3CCC(NC(=O)Nc4ccc5c(c4)OCO5)C3)n2)cc(OC)c1OC (stereo unspecified) and Cc1cc(NC(=O)c2cccs2)ccc1OC1CCN(Cc2ccccc2)C1 (stereo unspecified) are within 1.5-fold of each other in XC50: 761 nM for the first, 895 nM for the second.

CC(C)(C)c1ccc(C(=O)N2CCC3(CC2)C(=O)N(CC(=O)NCC2CCCO2)CN3c2ccccc2)cc1 (stereo unspecified) and Cc1cc(Cl)c(S(=O)(=O)N(C)c2ccccc2)cc1OCC(=O)NC1CCCCC1 are within 1.5-fold of each other in XC50: 231 nM for the first, 296 nM for the second.

Compared with COc1ccccc1NC(=O)Nc1cccc(-c2ccc(-c3nc4cc(C(F)(F)F)ccc4[nH]3)cc2)c1, O=C(Nc1ccc(-c2cccc(-c3nc4cc(F)ccc4[nH]3)c2)cc1)Nc1ccc(F)c(F)c1F is 2.4-fold higher in XC50: 306 nM for the first, 739 nM for the second.

O=C(Nc1ccc(Cl)cc1)Nc1nc2cc([N+](=O)[O-])ccc2[nH]1 and CN(Cc1c(Cl)cnn1C)S(=O)(=O)c1ccc2ccccc2c1 are within 1.5-fold of each other in XC50: 801 nM for the first, 1040 nM for the second.

Compared with c1cc2[nH]c(CCCCc3nc4cc(C5=N[C@H]6CCCC[C@H]6N5)ccc4[nH]3)nc2cc1C1=N[C@H]2CCCC[C@H]2N1, COc1ccc2nc(N=C3NC4(c5ccccc5)NC(=Nc5nc6ccc(OC)cc6[nH]5)NC4(c4ccccc4)N3)[nH]c2c1 (stereo unspecified) is 2-fold lower in XC50: 415 nM for the first, 204 nM for the second.

COc1ccc(-c2cn3c(C(=O)Nc4ccccc4Cl)c(-c4ccccc4)c4c3n2CCCC4)cc1 and COc1ccc(OCCCN2CCCCC2)cc1S(=O)(=O)c1ccc(OCc2ccc(C(F)(F)F)cc2)cc1 are within 1.5-fold of each other in XC50: 792 nM for the first, 1010 nM for the second.

Going from COc1ccc(C(=O)Nc2cc(Br)c3c(c2)CNCC3)cc1C(F)(F)F to CC(Oc1cccc(Cl)c1)C(=O)N1CCc2ccccc21 (stereo unspecified), the XC50 falls from 1070 nM to 512 nM (2.1-fold).

Compared with OC1(c2ccccc2)c2cc(Cl)ccc2OC1c1nc2c(Cl)ccc(Cl)c2o1 (stereo unspecified), CC(=NNC(=N)N)c1ccc2c(ccc3ccccc32)c1 is 2.8-fold higher in XC50: 301 nM for the first, 833 nM for the second.

Going from C(=N\Nc1nccc2sc(-c3ccccc3)cc12)/c1cccnc1 to CC(C)C[C@H](NC(=O)c1cc2cc(OCCN3CCNCC3)ccc2o1)C(=O)NC1CC[C@@H](C)N(C(=O)Nc2ccc(Cl)cc2)CC1=O (stereo partly specified), the XC50 falls from 821 nM to 382 nM (2.1-fold).
